Data on one molecule can be found in patent US20250273333A1, “Methods and Apparatus for Diagnosis of Progressive Kidney Function Decline Using a Machine Learning Model” (ICAHN SCHOOL OF MEDICINE AT MOUNT SINAI, priority 2020, published 2025).

What all share (format): in vivo, human
Experiment [1] relates to participants with type 2 diabetes and prevalent DKD. Briefly: CANVAS trial post hoc analysis: chronic eGFR slope, canagliflozin vs placebo, by risk strata. The procedure: (§1) Blood and urine samples for exploratory biomarker research can be stored during the CANVAS trial. In some instances, participants can be randomly assigned using a central web-based response system in a 1:1:1 ratio to treatment with 100 mg canagliflozin, 300 mg canagliflozin, or matching placebo. In some instances, participants can be assigned to treatment with canagliflozin or placebo followed for a median of 6.1 years. All participants, care providers, trial staff, and outcome assessors can be blinded to treatment allocation for the duration of the study. KidneyIntelX algorithm can be indicated for individuals with type 2 diabetes and prevalent DKD, defined by an eGFR ≥30 to 59.9 ml/min/1.73 m2 (G3a and G3b) or those with eGFR ≥60 ml/min/1.73 m2 with a UACR ≥30 mg/g to assess the risk for progressive decline in kidney function within a time period (e.g., 5 years). Thus, for analyses, the subgroup of the CANVAS population can be restricted to meet criteria for prevalent DKD at a time of enrollment.
(§2) A composite kidney outcome for such post hoc analysis can be defined as: A) progressive decline in kidney function (rapid kidney function decline (e.g., RKFD; with eGFR decline of ≥5 ml/min/year)); B) a sustained 40% decline of eGFR; or C) kidney failure defined as an eGFR <15 mL/min/1.73 m^2 or need for dialysis or kidney transplantation. In CANVAS, eGFR measurements were available at baseline, 6 weeks and annually. Since hemodynamic effects of SGLT2i on acute changes in eGFR, the anchor/baseline to define progressive decline in kidney function and 40% decline in eGFR for participants in the canagliflozin arm can be the eGFR value at 6 weeks. In some instances, when the eGFR value meet ≥40% decline from baseline only on the last eGFR obtained in the CANVAS protocol, then the event can be adjudicated by a blinded adjudication committee to determine qualification as a valid event. In some instances, eGFR slopes can be determined by linear mixed models.
To explore whether baseline KidneyIntelX scores modified the treatment effect of canagliflozin versus placebo on the composite kidney outcome and chronic eGFR compared to the treatment effect as per the baseline KDIGO risk strata, tests for heterogeneity can be performed by adding interaction terms between KidneyIntelX or KDIGO and randomized treatment assignment to the relevant logistic regression models for the categorical outcome and mixed linear models for the eGFR slopes. The treatment effect of canagliflozin versus placebo on KidneyIntelX risk scores over time can be assessed by calculating the difference of change in risk values generated by the KidneyIntelX algorithm (e.g., using the diagnosis device 101) between treatment arms using mixed linear models. […]

Experiment [2] shares this test system. Briefly: CANVAS trial post hoc analysis: KidneyIntelX risk score over time, canagliflozin vs placebo. The procedure:
Blood and urine samples for exploratory biomarker research can be stored during the CANVAS trial. In some instances, participants can be randomly assigned using a central web-based response system in a 1:1:1 ratio to treatment with 100 mg canagliflozin, 300 mg canagliflozin, or matching placebo. In some instances, participants can be assigned to treatment with canagliflozin or placebo followed for a median of 6.1 years. All participants, care providers, trial staff, and outcome assessors can be blinded to treatment allocation for the duration of the study. […]
Continuous baseline variables with normal distributions can be reported as means with standard deviations (SDs). […] Risk values can be calculated by the KidneyIntelX (using the diagnosis device 101) on the participants in the placebo and canagliflozin arms of CANVAS with prevalent DKD, with the inputs as per the currently commercially available test which include the following: baseline TNFR-1, TNFR-2 and KIM-1 levels, TNFR-2/TNFR-1 ratio, KIM-1/TNFR-1 ratio, eGFR, UACR, HbA1C, systolic BP, AST, platelets, and serum calcium. […] Therefore, by determining proportion experiencing the composite kidney event within the categorical risk strata and used logistic regression, the relative odds of the endpoint for high vs. low risk and intermediate risk score strata can be determined. […]

Experiment [3] has the same test system. Briefly: CANVAS trial post hoc analysis: composite kidney outcome, canagliflozin vs placebo, by KidneyIntelX risk strata. Particulars: for incidence of the composite kidney outcome: canagliflozin arm. The method, then: as §1, §2
Continuous baseline variables with normal distributions can be reported as means with standard deviations (SDs). Variables with skewed distributions can be reported as median values with interquartile range (IQRs) and can be natural logarithm transformed before analysis. Furthermore, categorical variables can be reported as percentages. Risk values can be calculated by the KidneyIntelX (using the diagnosis device 101) on the participants in the placebo and canagliflozin arms of CANVAS with prevalent DKD, with the inputs as per the currently commercially available test which include the following: baseline TNFR-1, TNFR-2 and KIM-1 levels, TNFR-2/TNFR-1 ratio, KIM-1/TNFR-1 ratio, eGFR, UACR, HbA1C, systolic BP, AST, platelets, and serum calcium. The risk score cutoffs that were previously validated can applied to the CANVAS participants with DKD and available baseline plasma. Each individual can be allocated a predicted probability of the composite outcome using the baseline inputs as per the risk value generated by the KidneyIntelX algorithm and a continuous KidneyIntelX score between 5 and 100 in increments of 5. For example, consistent with the pre-defined commercial cut offs, participants with a risk value between 5 and 45 can be classified as “low risk”, between 50 and 85 can be classified as “intermediate risk”, and those with a risk value between 90 and 100 can be classified as “high risk”. Therefore, by determining proportion experiencing the composite kidney event within the categorical risk strata and used logistic regression, the relative odds of the endpoint for high vs. low risk and intermediate risk score strata can be determined.
Proportion of participants that experienced composite kidney outcome by KidneyIntelX algorithm risk strata can be compared to a proportion as classified by participants' Kidney Disease Improving Global Outcomes (KDIGO) KDIGO risk strata based on their baseline eGFR and UACR value. […]

Several values for one entry are separate records, joined by “and”; a condition that tells them apart may be missing. Equal entries are not always repeated.

For `Cc1ccc([C@@H]2O[C@H](CO)[C@@H](O)[C@H](O)[C@H]2O)cc1Cc1ccc(-c2ccc(F)cc2)s1` [canagliflozin, (2S,3R,4R,5S,6R)-2-[3-[[5-(4-fluorophenyl)thiophen-2-yl]methyl]-4-methylphenyl]-6-(hydroxymethyl)oxane-3,4,5-triol], the “difference in chronic eGFR slope, canagliflozin vs. placebo (protection for eGFR decline)” value in experiment [1] (high risk KidneyIntelX stratum) is recorded as 2.16 ml/min/1.73 m2; in experiment [1] (low risk KidneyIntelX stratum), 0.66 ml/min/1.73 m2; in experiment [1] (moderate/intermediate risk KidneyIntelX stratum), 1.52 ml/min/1.73 m2. For the same molecule, in experiment [1] (highest risk KDIGO stratum), the “difference in chronic eGFR slope, canagliflozin vs. placebo” value is listed as 1.31 ml/min/1.73 m2. Moreover, in experiment [2] (over follow-up, vs placebo (FIG. 24)), the “duration of effect on KidneyIntelX” value is “persisted over time until the end of follow-up”. Also, in experiment [2] (randomized to canagliflozin, 95% CI -6.9 to -3.9, placebo increased 6.2%, p<0.001), the “decrease of KidneyIntelX from baseline to one year” value stood at 5.4%. The “RR for composite kidney outcome, canagliflozin vs. placebo” value in experiment [3] (all participants with baseline biomarkers, 95% CI 0.49, 0.99) came to 0.70. Further, the “incidence of the composite kidney outcome” value in experiment [3] (high risk KidneyIntelX stratum) was 23.0% and 23.5%; in experiment [3] (intermediate risk KidneyIntelX stratum, mean follow-up 5.6 years), 9.5%; in experiment [3] (low risk KidneyIntelX stratum, mean follow-up 5.6 years), 3.6%. Moreover, the “composite kidney outcome occurrence” value in experiment [3] (canagliflozin group, all participants with baseline biomarkers (placebo 11.6%)) was found to be 8.9%. The “RR for the kidney outcome, canagliflozin vs. placebo” value is 0.67 in experiment [3] (high-risk KidneyIntelX stratum, 95% CI 0.38-1.18); 0.59 in experiment [3] (intermediate KidneyIntelX stratum, 95% CI 0.36-0.98); 1.65 in experiment [3] (low-risk KidneyIntelX stratum, 95% CI 0.54-5.08). Moreover, the “absolute risk reduction (ARR) for composite kidney outcome” value in experiment [3] (high-risk KidneyIntelX stratum, vs placebo arm 31.4%) came out at 7.9%.
